In ChEMBL document CHEMBL1201862, “PubChem BioAssay data set” (2004):
Active and inactive are the calls of the source.

What was measured:
SUMO-activating enzyme = SUMO-activating enzyme (Homo sapiens, UniProt Q9UBT2); assay: blockers of UBC9-mediated SUMO conjugation – biochemical, AlphaScreen, SUMOylation inhibitor project, confirmation (AID 2018); type: functional
[1] = Counterscreen for AddAB inhibitors: absorbance-based bacterial cell-based high throughput dose response assay for inhibitors of bacterial viability. [Related pubchem assays (depositor defined):AID435030, AID449728, AID449731, AID488942, AID488955, AID488956]; type: functional
Albumin = Albumin (Bos taurus, UniProt P02769); assay: Counterscreen for inhibitors of T-cell receptor (TCR)-CD3 interaction: Fluorescence-based biochemical high throughput dose response assay to identify inhibitors of T-cell receptor (TCR)-CD3 interaction using a TAMRA-labeled BSA probe.; type: functional
Exodeoxyribonuclease V = biological target: T1, Exodeoxyribonuclease V (Escherichia coli (strain K12), UniProt P04993+P07648+P08394); assay: RecBCD inhibition via phage-restricted bacterial growth – absorbance, V66 E. coli, mutant T4 phage, counter-screen for AddAB inhibitor project, dose response (AID 492957); type: functional, cell-based, Escherichia coli str. K-12 substr. MG1655
T1 sequence (P04993 whole entry): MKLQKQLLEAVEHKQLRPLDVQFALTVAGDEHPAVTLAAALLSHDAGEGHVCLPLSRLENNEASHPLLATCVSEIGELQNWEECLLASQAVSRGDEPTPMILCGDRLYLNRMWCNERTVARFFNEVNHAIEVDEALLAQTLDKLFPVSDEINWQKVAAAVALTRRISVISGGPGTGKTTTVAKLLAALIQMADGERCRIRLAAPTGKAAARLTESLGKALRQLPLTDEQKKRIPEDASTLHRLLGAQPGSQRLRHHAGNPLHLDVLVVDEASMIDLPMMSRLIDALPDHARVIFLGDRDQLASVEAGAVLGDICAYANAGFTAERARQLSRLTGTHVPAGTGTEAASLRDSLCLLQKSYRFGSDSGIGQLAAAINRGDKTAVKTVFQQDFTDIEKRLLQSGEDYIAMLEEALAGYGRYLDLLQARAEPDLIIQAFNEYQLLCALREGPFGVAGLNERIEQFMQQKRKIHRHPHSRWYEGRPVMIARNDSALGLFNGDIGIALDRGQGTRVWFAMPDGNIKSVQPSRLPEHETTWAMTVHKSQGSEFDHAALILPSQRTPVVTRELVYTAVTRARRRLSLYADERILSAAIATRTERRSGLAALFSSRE
T1 sequence (P07648 whole entry): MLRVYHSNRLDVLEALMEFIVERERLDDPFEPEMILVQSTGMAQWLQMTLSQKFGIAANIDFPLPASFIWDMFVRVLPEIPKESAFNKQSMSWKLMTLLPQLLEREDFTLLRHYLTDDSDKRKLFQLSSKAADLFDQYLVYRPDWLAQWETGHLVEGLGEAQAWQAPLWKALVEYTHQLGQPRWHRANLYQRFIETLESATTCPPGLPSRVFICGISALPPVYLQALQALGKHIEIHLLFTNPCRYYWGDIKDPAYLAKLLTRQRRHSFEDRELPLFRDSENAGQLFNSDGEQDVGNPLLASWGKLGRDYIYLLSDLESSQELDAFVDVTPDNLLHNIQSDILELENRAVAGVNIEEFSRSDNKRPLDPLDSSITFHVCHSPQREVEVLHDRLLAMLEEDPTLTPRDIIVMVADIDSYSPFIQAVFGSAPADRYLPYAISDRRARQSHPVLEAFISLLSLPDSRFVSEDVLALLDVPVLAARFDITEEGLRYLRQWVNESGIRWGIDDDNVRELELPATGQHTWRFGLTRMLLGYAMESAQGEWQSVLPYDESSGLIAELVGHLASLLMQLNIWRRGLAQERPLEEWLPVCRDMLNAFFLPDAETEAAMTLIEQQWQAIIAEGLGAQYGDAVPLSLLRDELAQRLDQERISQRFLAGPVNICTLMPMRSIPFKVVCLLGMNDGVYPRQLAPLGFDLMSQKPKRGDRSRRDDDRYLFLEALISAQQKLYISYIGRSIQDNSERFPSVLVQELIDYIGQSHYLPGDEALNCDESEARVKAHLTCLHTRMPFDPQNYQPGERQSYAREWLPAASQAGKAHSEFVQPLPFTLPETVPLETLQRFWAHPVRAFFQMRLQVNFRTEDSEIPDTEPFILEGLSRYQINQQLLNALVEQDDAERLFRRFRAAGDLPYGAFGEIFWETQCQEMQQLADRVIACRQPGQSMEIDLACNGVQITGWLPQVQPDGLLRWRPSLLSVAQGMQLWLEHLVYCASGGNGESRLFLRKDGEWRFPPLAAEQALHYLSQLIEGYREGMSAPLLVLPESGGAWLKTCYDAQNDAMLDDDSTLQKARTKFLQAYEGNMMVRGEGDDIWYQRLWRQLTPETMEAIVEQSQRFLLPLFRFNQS
T1 sequence (P08394 whole entry): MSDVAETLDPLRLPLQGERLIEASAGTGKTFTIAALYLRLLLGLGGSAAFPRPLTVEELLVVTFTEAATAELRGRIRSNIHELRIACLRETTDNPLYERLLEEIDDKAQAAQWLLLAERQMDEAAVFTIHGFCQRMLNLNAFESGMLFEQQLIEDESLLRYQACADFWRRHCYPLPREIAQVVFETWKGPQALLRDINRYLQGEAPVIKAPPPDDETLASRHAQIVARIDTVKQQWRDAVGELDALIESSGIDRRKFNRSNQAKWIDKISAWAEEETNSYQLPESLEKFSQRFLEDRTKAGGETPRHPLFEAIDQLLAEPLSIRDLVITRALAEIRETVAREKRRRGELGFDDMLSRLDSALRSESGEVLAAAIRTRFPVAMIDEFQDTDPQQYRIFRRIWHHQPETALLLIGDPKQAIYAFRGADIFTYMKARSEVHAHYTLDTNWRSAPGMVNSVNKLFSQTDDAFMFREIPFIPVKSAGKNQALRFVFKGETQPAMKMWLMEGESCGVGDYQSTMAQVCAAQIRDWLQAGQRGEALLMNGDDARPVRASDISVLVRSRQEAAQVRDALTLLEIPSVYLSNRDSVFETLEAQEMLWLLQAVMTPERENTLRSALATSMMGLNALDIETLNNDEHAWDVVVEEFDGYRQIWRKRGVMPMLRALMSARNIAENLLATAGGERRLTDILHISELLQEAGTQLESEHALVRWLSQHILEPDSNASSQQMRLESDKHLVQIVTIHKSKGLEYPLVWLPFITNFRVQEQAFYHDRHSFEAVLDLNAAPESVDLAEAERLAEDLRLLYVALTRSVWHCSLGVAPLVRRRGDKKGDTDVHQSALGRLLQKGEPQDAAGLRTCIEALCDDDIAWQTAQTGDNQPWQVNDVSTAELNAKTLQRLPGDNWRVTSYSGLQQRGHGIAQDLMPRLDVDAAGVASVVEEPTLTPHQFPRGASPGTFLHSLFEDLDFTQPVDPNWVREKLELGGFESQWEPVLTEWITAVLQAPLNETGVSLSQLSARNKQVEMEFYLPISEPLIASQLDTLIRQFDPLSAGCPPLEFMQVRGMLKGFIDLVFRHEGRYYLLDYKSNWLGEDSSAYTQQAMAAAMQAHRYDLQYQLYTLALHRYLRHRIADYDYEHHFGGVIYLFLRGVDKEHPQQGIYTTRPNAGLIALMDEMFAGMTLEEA

[2] = non-specific 3'UTR reporter inhibition in Clone20-Shn3RL – cell-based, Renilla luciferase, cherry-picked, counter-screen for Shn3 inhibitor project, dose response (AID 624133); type: functional
Cannabinoid receptor 2 [3] = biological target: T2, Cannabinoid receptor 2 (Homo sapiens, UniProt P34972); assay: SAR analysis of agonists of the Cannabinoid Receptor 2 using an Image-Based Assay - Set 3. [Related pubchem assays (depositor defined):AID2013, AID2026]; type: functional
Cannabinoid receptor 2 [4] = biological target: T2, Cannabinoid receptor 2; assay: SAR analysis of antagonists of the Cannabinoid Receptor 2 using an Image-Based Assay. [Related pubchem assays (depositor defined):AID2013, AID2026]; type: functional
Cannabinoid receptor 1 [5] = biological target: T3, Cannabinoid receptor 1 (Homo sapiens, UniProt P21554); assay: SAR analysis of antagonists of the Cannabinoid Receptor 1 using an Image-Based Assay - Set 4. [Related pubchem assays (depositor defined):AID2013, AID2026]; type: functional
[6] = biological target: T4, G-protein coupled receptor 35 (Homo sapiens, UniProt Q9HC97); assay: SAR analysis of Antagonists of the GPR35 Receptor using an Image-Based Assay - Set 3. [Related pubchem assays (depositor defined):AID2013, AID2026]; type: functional
[7] = reduction of Shn3 3'UTR-driven luciferase in osteoblasts – cell-based, Clone20 osteoblasts, firefly luciferase, cherry-picked, dose response (AID 624132); type: functional;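 further: firefly luciferase luminescence from reporter carrying the Shn3 3'UTR in osteoblasts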
Cannabinoid receptor 1 [8] = biological target: T3, Cannabinoid receptor 1; assay: SAR analysis of antagonists of the Cannabinoid Receptor 1 using an Image-Based Assay - Set 2. [Related pubchem assays (depositor defined):AID2013, AID2026]; type: functional
Cannabinoid receptor 1 [9] = biological target: T3, Cannabinoid receptor 1; assay: SAR analysis of agonists of the Cannabinoid Receptor 1 using an Image-Based Assay - Set 2. [Related pubchem assays (depositor defined):AID2013, AID2026]; type: functional
[10] = biological target: T5, G-protein coupled receptor 55 (Homo sapiens, UniProt Q9Y2T6); assay: SAR Analysis of Selective Antagonists of GPR55 using an Image-Based Assay - Set 4. [Related pubchem assays (depositor defined):AID2013, AID2026]; type: functional
INS1 = assay: INS-1E survival protection against cytokine death – cell-based, luminescence, retest, dose response (AID 449756); type: functional; settings: Rattus norvegicus;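 further: cell death triggered by IL-1 beta plus TNF-alpha plus IFN-gamma mixture; protective hits raise ATP signal compared with cytokine alone wells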
[11] = loss of viability in HepG2 cells – cell-based, CellTiter-Glo, cherry-picked, cytotoxicity control for Shn3 inhibitor project, dose response (AID 624134); type: functional
Cannabinoid receptor 2 [12] = biological target: T2, Cannabinoid receptor 2; assay: SAR analysis of antagonists of the Cannabinoid Receptor 2 using an Image-Based Assay - Set 3. [Related pubchem assays (depositor defined):AID2013, AID2026]; type: functional
[13] = biological target: T5, G-protein coupled receptor 55; assay: inhibition of LPI-stimulated GPR55 beta-arrestin translocation – imaging, U2OS, beta-arrestin-GFP, LPI agonist, primary screen (AID 2013); type: functional;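 further: antagonist potency measured as reduced agonist-driven arrestin aggregation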
[14] = biological target: T5, G-protein coupled receptor 55; assay: blockade of LPI-induced GPR55 arrestin translocation – imaging, U2OS, beta-arrestin-GFP, LPI agonist, set 2, SAR follow-up (AID 2820); type: functional
Cannabinoid receptor 2 [15] = biological target: T2, Cannabinoid receptor 2; assay: SAR analysis of agonists of the Cannabinoid Receptor 2 using an Image-Based Assay. [Related pubchem assays (depositor defined):AID2013, AID2026]; type: functional
[16] = biological target: T4, G-protein coupled receptor 35; assay: SAR analysis of Agonists of the GPR35 Receptor using an Image-Based Assay - Set 2. [Related pubchem assays (depositor defined):AID2013, AID2026]; type: functional
[17] = biological target: T6, E3 ubiquitin-protein ligase XIAP (Homo sapiens, UniProt P98170); assay: SAR analysis of Antagonists of IAP-family anti-apoptotic proteins. [Related pubchem assays (depositor defined):AID1018, AID1449, AID1513, AID1514, AID1638]
[18] = biological target: T6, E3 ubiquitin-protein ligase XIAP; assay: SAR analysis of Antagonists of XIAP-Bir3 domain of IAP-family anti-apoptotic proteins. [Related pubchem assays (depositor defined):AID1018, AID1449, AID1513, AID1514, AID1638]
[19] = biological target: T7, Alkaline phosphatase, tissue-nonspecific isozyme (Homo sapiens, UniProt P05186); assay: activation of tissue-nonspecific alkaline phosphatase – biochemical, TNAP isozyme, mouse IAP uHTS hits, selectivity assay for mouse IAP activator project, dose response (AID 488880); type: functional
T7 sequence (P05186 whole entry): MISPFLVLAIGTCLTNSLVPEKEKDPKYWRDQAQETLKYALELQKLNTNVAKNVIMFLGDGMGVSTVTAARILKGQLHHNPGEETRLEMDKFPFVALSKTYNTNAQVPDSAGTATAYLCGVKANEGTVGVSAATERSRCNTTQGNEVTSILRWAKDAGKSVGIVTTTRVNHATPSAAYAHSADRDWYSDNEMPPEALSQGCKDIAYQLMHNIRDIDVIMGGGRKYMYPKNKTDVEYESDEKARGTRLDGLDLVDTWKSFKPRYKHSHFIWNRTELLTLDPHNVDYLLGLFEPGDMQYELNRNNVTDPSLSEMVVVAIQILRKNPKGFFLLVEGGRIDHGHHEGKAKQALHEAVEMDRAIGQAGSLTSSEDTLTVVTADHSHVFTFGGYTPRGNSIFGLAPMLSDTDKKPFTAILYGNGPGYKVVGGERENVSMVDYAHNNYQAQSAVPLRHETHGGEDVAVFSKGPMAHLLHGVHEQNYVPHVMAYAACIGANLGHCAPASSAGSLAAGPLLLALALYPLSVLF

[20] = biological target: Intestinal-type alkaline phosphatase (Homo sapiens, UniProt P09923); assay: activation of human intestinal alkaline phosphatase – biochemical, dose response (AID 488873); type: functional
[21] = biological target: Intestinal-type alkaline phosphatase (Mus musculus, UniProt P24822); assay: mouse intestinal alkaline phosphatase activators, dose response, biochemical, luminescence, uHTS hits (AID 488783); type: functional
Intestinal-type alkaline phosphatase (Mus musculus, UniProt P24822), sequence (P24822 whole entry): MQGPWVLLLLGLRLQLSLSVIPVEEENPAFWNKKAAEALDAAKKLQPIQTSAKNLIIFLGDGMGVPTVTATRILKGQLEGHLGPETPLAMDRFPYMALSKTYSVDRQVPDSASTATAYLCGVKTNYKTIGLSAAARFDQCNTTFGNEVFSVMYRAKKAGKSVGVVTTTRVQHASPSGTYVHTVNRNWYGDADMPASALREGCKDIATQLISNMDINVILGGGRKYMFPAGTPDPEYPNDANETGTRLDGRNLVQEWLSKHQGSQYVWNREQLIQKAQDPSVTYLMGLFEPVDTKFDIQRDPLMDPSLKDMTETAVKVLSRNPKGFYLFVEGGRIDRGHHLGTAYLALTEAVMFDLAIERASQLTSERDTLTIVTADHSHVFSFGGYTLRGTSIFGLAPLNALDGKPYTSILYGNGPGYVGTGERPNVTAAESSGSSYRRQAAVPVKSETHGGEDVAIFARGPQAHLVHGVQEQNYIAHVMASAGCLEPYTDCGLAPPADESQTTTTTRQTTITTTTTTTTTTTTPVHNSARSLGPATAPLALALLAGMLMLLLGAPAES

T3 sequence (P21554 whole entry): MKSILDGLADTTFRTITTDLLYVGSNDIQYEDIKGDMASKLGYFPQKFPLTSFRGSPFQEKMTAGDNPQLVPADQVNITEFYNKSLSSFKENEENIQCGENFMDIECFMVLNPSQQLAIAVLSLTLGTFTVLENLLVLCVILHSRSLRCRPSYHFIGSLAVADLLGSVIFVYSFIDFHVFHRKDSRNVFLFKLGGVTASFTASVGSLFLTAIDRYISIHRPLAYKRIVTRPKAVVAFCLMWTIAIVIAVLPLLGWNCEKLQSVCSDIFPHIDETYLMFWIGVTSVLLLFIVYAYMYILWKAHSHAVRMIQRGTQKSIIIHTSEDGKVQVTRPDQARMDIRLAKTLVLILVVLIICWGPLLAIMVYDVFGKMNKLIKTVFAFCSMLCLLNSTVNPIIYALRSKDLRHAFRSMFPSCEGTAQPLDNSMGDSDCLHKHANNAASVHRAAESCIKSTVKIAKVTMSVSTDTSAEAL
T2 sequence (P34972 whole entry): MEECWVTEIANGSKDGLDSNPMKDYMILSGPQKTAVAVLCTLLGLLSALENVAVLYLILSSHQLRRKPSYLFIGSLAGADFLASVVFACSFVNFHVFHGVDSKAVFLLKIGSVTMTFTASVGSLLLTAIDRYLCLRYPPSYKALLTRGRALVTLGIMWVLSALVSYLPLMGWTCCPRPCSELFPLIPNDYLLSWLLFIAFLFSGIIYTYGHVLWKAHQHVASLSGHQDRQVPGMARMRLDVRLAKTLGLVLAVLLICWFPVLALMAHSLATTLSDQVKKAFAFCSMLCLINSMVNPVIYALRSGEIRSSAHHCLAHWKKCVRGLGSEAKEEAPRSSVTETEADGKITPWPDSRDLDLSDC
T5 sequence (Q9Y2T6 whole entry): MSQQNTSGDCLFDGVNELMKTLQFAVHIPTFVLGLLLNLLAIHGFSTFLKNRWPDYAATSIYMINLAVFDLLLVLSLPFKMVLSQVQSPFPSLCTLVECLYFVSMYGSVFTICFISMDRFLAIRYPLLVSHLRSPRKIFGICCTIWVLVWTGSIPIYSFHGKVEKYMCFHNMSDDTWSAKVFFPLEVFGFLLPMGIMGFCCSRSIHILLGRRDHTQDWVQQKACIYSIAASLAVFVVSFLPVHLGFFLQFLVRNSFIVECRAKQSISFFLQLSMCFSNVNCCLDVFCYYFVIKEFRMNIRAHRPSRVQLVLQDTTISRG
T6 sequence (P98170 whole entry, the tested form may be a part): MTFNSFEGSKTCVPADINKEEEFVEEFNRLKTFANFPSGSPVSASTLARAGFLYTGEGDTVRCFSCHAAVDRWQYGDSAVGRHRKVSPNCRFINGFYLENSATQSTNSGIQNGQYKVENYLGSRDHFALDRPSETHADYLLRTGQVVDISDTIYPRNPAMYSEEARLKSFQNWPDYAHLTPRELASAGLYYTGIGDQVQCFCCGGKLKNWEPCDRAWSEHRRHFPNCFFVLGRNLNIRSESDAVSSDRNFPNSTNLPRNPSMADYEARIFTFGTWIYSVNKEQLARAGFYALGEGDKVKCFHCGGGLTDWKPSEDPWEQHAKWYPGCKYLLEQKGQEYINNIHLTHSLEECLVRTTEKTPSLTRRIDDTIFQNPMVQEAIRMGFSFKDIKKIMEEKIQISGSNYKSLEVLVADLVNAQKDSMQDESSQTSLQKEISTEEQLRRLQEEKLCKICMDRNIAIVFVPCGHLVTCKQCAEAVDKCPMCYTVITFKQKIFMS
T4 sequence (Q9HC97 whole entry): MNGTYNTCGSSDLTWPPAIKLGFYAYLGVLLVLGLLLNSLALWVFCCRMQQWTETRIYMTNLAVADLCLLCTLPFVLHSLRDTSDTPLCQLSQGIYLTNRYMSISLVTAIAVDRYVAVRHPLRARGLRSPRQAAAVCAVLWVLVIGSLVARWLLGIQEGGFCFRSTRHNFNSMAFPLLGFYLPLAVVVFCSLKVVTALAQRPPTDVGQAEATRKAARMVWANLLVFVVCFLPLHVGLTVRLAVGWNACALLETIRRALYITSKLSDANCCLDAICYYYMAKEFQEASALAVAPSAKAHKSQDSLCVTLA
Intestinal-type alkaline phosphatase (Homo sapiens, UniProt P09923), sequence (P09923 whole entry): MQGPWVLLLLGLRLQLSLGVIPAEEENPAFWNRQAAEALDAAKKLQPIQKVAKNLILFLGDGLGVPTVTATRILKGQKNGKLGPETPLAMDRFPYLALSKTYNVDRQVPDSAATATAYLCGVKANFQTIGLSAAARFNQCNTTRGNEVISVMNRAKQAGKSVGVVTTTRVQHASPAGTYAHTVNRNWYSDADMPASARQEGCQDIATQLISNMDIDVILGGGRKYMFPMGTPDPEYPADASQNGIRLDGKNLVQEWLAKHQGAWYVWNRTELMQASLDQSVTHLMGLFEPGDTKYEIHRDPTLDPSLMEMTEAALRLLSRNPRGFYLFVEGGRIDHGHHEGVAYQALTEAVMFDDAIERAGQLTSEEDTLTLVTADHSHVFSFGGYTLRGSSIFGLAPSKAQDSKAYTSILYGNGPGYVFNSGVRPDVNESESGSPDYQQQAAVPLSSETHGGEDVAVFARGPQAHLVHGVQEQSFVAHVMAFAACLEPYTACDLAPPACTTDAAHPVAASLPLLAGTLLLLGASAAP
Albumin, sequence (P02769 whole entry): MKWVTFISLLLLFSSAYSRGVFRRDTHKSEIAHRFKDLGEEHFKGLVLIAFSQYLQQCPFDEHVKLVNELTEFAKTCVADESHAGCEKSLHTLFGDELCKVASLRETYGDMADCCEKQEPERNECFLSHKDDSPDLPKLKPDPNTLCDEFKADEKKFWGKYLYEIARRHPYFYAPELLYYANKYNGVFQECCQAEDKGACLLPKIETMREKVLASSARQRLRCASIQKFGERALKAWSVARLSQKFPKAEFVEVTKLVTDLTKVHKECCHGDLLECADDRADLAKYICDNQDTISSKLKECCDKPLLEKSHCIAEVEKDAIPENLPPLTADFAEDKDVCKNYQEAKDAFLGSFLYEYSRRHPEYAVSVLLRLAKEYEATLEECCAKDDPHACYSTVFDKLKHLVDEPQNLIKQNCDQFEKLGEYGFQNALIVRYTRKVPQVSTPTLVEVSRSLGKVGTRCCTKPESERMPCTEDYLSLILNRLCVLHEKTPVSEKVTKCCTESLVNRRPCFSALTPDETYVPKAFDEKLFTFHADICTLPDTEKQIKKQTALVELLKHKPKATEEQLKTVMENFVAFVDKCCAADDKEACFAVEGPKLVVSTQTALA
SUMO-activating enzyme, sequence (Q9UBE0 whole entry): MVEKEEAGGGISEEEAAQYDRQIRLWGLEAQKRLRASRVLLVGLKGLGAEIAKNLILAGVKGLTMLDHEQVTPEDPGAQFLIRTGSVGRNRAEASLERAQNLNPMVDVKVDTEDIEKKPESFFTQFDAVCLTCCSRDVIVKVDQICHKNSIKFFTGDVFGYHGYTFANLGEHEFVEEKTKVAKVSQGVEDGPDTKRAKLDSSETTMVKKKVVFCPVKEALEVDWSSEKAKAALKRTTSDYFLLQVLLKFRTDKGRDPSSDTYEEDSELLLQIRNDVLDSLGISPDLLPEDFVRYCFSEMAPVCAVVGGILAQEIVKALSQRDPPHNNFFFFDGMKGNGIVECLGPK
SUMO-activating enzyme, sequence (Q9UBT2 whole entry): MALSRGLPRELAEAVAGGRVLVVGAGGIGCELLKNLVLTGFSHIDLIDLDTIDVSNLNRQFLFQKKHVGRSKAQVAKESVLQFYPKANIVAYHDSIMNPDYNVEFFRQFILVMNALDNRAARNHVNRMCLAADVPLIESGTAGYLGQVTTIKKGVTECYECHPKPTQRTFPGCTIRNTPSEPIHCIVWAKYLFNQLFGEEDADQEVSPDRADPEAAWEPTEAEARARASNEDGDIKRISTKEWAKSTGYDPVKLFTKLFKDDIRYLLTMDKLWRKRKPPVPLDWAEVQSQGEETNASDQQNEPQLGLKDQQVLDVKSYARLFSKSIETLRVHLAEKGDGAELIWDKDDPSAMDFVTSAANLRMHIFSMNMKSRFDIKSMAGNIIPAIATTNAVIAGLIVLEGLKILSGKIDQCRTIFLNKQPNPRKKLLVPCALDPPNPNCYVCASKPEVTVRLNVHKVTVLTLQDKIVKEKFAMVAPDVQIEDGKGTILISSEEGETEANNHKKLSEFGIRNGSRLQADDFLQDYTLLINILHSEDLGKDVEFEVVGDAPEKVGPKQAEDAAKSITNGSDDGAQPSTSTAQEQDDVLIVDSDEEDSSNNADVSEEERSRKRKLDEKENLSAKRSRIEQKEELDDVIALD

O=C(CN1C(=O)S/C(=C\c2ccccc2)C1=O)NNC(=O)c1ccccc1O
IC50 (SUMO-activating enzyme): 38.2 µM (active) | IC50 [1]: > 119 µM (inactive) | IC50 (Albumin): > 94.1 µM (inactive) | IC50 (Exodeoxyribonuclease V): > 119 µM (inactive)

Cc1nc(N2CCN(C(=O)c3ccco3)CC2)c2c3c(sc2n1)CC(C)CC3 (stereo not given)
AC50 [2]: 4.08 µM (active) | EC50 (Cannabinoid receptor 2 [3]): 28.2 µM (inactive) | IC50 (Cannabinoid receptor 2 [4]): > 32 µM (inactive) | IC50 (Cannabinoid receptor 1 [5]): 3.17 µM (active) | IC50 [6]: > 32 µM (inactive) | AC50 [7]: 2.33 µM (active) | IC50 (Cannabinoid receptor 1 [8]): > 32 µM (inactive) | EC50 (Cannabinoid receptor 1 [9]): > 32 µM (inactive) | IC50 [10]: 0.527 µM (active) | AC50 (INS1): 6.56 µM (active) | AC50 [11]: 50.5 µM (active) | IC50 (Cannabinoid receptor 2 [12]): > 32 µM (inactive) | IC50 [13]: 0.653 µM (active) | IC50 [14]: 0.342 µM (active) | EC50 (Cannabinoid receptor 2 [15]): > 32 µM (inactive) | EC50 [16]: > 32 µM (inactive)

CN[C@@H](C)C(=O)NC1CCCN([C@@H](C)C(=O)NC2CCc3ccccc3C2)C1=O (stereo not given in full)
IC50 [17]: > 100 µM (inactive) | IC50 [18]: > 100 µM (inactive)

Cc1ccc(NS(=O)(=O)c2ccc3nc(O)oc3c2)c(C)c1
EC50 [19]: 58.7 µM (active) | EC50 [20]: 60.3 µM (active) | EC50 [21]: 62.7 µM (active)
